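Five compound concentrations were applied to cells in 96-well plates for 48 hours; endpoints were derived by simple linear interpolation of the resulting dose-response curve. GI50 = concentration required for 50% inhibition of growth. TGI is the concentration that stops growth completely.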
What was measured:
Assay in all cases: NCI-60 cell line screen, 48 h
786-0 renal = test system: 786-0 renal
A498 renal = test system: A498 renal
A549 NSCLC = test system: A549 NSCLC
ACHN renal = test system: ACHN renal
BT-549 breast = test system: BT-549 breast
CAKI-1 renal = test system: CAKI-1 renal
CCRF-CEM leukemia = test system: CCRF-CEM leukemia
COLO 205 colon = test system: COLO 205 colon
DU-145 prostate = test system: DU-145 prostate
EKVX NSCLC = test system: EKVX NSCLC
HCC-2998 colon = test system: HCC-2998 colon
HCT-116 colon = test system: HCT-116 colon
HCT-15 colon = test system: HCT-15 colon
HL-60(TB) leukemia = test system: HL-60(TB) leukemia
HOP-62 NSCLC = test system: HOP-62 NSCLC
HOP-92 NSCLC = test system: HOP-92 NSCLC
HS 578T breast = test system: HS 578T breast
HT29 colon = test system: HT29 colon
IGROV1 ovarian = test system: IGROV1 ovarian
K-562 leukemia = test system: K-562 leukemia
KM12 colon = test system: KM12 colon
LOX IMVI melanoma = test system: LOX IMVI melanoma
M14 melanoma = test system: M14 melanoma
MALME-3M melanoma = test system: MALME-3M melanoma
MCF7 breast = test system: MCF7 breast
MDA-MB-231 breast = test system: MDA-MB-231 breast
MDA-MB-435 = test system: MDA-MB-435
MOLT-4 leukemia = test system: MOLT-4 leukemia
NCI-H226 lung = test system: NCI-H226 lung
NCI-H23 lung = test system: NCI-H23 lung
NCI-H460 lung = test system: NCI-H460 lung
NCI/ADR-RES ovarian = test system: NCI/ADR-RES ovarian
OVCAR-3 ovarian = test system: OVCAR-3 ovarian
OVCAR-4 ovarian = test system: OVCAR-4 ovarian
OVCAR-5 ovarian = test system: OVCAR-5 ovarian
OVCAR-8 ovarian = test system: OVCAR-8 ovarian
PC-3 prostate = test system: PC-3 prostate
RPMI-8226 leukemia = test system: RPMI-8226 leukemia
RXF 393 renal = test system: RXF 393 renal
SF-268 CNS = test system: SF-268 CNS
SF-295 CNS = test system: SF-295 CNS
SF-539 CNS = test system: SF-539 CNS
SK-MEL-2 melanoma = test system: SK-MEL-2 melanoma
SK-MEL-28 melanoma = test system: SK-MEL-28 melanoma
SK-MEL-5 melanoma = test system: SK-MEL-5 melanoma
SK-OV-3 ovarian = test system: SK-OV-3 ovarian
SN12C renal = test system: SN12C renal
SNB-19 CNS = test system: SNB-19 CNS
SNB-75 CNS = test system: SNB-75 CNS
SR leukemia = test system: SR leukemia
SW-620 colon = test system: SW-620 colon
T-47D breast = test system: T-47D breast
TK-10 renal = test system: TK-10 renal
U251 CNS = test system: U251 CNS
UACC-257 melanoma = test system: UACC-257 melanoma
UACC-62 melanoma = test system: UACC-62 melanoma
UO-31 renal = test system: UO-31 renal

C=C(C=O)[C@@H]1CC[C@]2(CO)CC[C@]3(C)[C@H](CC[C@@H]4[C@@]5(C)CCCNC(C)(C)[C@@H]5CC[C@]43C)[C@@H]12
GI50 (786-0 renal): 14.9 µM
TGI (786-0 renal): 32.3 µM
GI50 (A498 renal): 0.57 µM
TGI (A498 renal): 93.6 µM
GI50 (A549 NSCLC): 15.5 µM
TGI (A549 NSCLC): 46 µM
GI50 (ACHN renal): 15 µM
TGI (ACHN renal): 31.2 µM
GI50 (BT-549 breast): 8.94 µM
TGI (BT-549 breast): 22.8 µM
GI50 (CAKI-1 renal): 14.3 µM
TGI (CAKI-1 renal): 31.8 µM
GI50 (CCRF-CEM leukemia): 2.21 µM
TGI (CCRF-CEM leukemia): 6.22 µM
GI50 (COLO 205 colon): 12.8 µM
TGI (COLO 205 colon): 29.4 µM
GI50 (DU-145 prostate): 7.13 µM
TGI (DU-145 prostate): 20.3 µM
GI50 (EKVX NSCLC): 11.1 µM
TGI (EKVX NSCLC): 30.8 µM
GI50 (HCC-2998 colon): 1.91 µM
TGI (HCC-2998 colon): 3.67 µM
GI50 (HCT-116 colon): 1.8 µM
TGI (HCT-116 colon): 3.57 µM
GI50 (HCT-15 colon): 1.99 µM
TGI (HCT-15 colon): 7.4 µM
GI50 (HL-60(TB) leukemia): 1.96 µM
TGI (HL-60(TB) leukemia): 4.36 µM
GI50 (HOP-62 NSCLC): 14.6 µM
TGI (HOP-62 NSCLC): 31.3 µM
GI50 (HOP-92 NSCLC): 2.12 µM
TGI (HOP-92 NSCLC): 7.64 µM
GI50 (HS 578T breast): 9.64 µM
TGI (HS 578T breast): 50.6 µM
GI50 (HT29 colon): 2.31 µM
TGI (HT29 colon): 5.95 µM
GI50 (IGROV1 ovarian): 3.34 µM
TGI (IGROV1 ovarian): 13.1 µM
GI50 (K-562 leukemia): 1.93 µM
TGI (K-562 leukemia): 5.44 µM
GI50 (KM12 colon): 3.01 µM
TGI (KM12 colon): 9.33 µM
GI50 (LOX IMVI melanoma): 1.74 µM
TGI (LOX IMVI melanoma): 3.3 µM
GI50 (M14 melanoma): 7.77 µM
TGI (M14 melanoma): 23.3 µM
GI50 (MALME-3M melanoma): 10.8 µM
TGI (MALME-3M melanoma): 26.4 µM
GI50 (MCF7 breast): 1.65 µM
TGI (MCF7 breast): 5.14 µM
GI50 (MDA-MB-231 breast): 14 µM
TGI (MDA-MB-231 breast): 31.5 µM
GI50 (MDA-MB-435): 4.8 µM
TGI (MDA-MB-435): 18.2 µM
GI50 (MOLT-4 leukemia): 3.64 µM
TGI (MOLT-4 leukemia): 16 µM
GI50 (NCI-H226 lung): 5.09 µM
TGI (NCI-H226 lung): 23.6 µM
GI50 (NCI-H23 lung): 6.16 µM
TGI (NCI-H23 lung): 21.1 µM
GI50 (NCI-H460 lung): 11 µM
TGI (NCI-H460 lung): 25.9 µM
GI50 (NCI/ADR-RES ovarian): 4.15 µM
TGI (NCI/ADR-RES ovarian): 23 µM
GI50 (OVCAR-3 ovarian): 3.35 µM
TGI (OVCAR-3 ovarian): 11.9 µM
GI50 (OVCAR-4 ovarian): 6.16 µM
TGI (OVCAR-4 ovarian): 23.2 µM
GI50 (OVCAR-5 ovarian): 9.72 µM
TGI (OVCAR-5 ovarian): 23 µM
GI50 (OVCAR-8 ovarian): 7.29 µM
TGI (OVCAR-8 ovarian): 78.8 µM
GI50 (PC-3 prostate): 2.91 µM
TGI (PC-3 prostate): 18.8 µM
GI50 (RPMI-8226 leukemia): 2.96 µM
TGI (RPMI-8226 leukemia): 13.9 µM
GI50 (RXF 393 renal): 3.83 µM
TGI (RXF 393 renal): 16.3 µM
GI50 (SF-268 CNS): 16.1 µM
TGI (SF-268 CNS): 50.8 µM
GI50 (SF-295 CNS): 13.8 µM
TGI (SF-295 CNS): 27.6 µM
GI50 (SF-539 CNS): 7.78 µM
TGI (SF-539 CNS): 20.4 µM
GI50 (SK-MEL-2 melanoma): 12 µM
TGI (SK-MEL-2 melanoma): 27.2 µM
GI50 (SK-MEL-28 melanoma): 3.15 µM
TGI (SK-MEL-28 melanoma): 12.6 µM
GI50 (SK-MEL-5 melanoma): 10.3 µM
TGI (SK-MEL-5 melanoma): 22.3 µM
GI50 (SK-OV-3 ovarian): 40 µM
TGI (SK-OV-3 ovarian): > 100 µM
GI50 (SN12C renal): 14 µM
TGI (SN12C renal): 35.2 µM
GI50 (SNB-19 CNS): 8.56 µM
TGI (SNB-19 CNS): 21.3 µM
GI50 (SNB-75 CNS): 9.07 µM
TGI (SNB-75 CNS): 61.8 µM
GI50 (SR leukemia): 1.75 µM
TGI (SR leukemia): 3.74 µM
GI50 (SW-620 colon): 2.01 µM
TGI (SW-620 colon): 5.52 µM
GI50 (T-47D breast): 2.76 µM
TGI (T-47D breast): 17.9 µM
GI50 (TK-10 renal): 28.5 µM
TGI (TK-10 renal): 69.9 µM
GI50 (U251 CNS): 4.43 µM
TGI (U251 CNS): 17.8 µM
GI50 (UACC-257 melanoma): 11.3 µM
TGI (UACC-257 melanoma): 31.7 µM
GI50 (UACC-62 melanoma): 13.1 µM
TGI (UACC-62 melanoma): 27.9 µM
GI50 (UO-31 renal): 14.9 µM
TGI (UO-31 renal): 38.7 µM
